The target of assay [1] is T1, PARP (Homo sapiens, UniProt P09874).
T1 construct: purchased Trevigen 4684-096-K HT (kit); 4684-096-01 (PARP enzyme)
Description: PARP ELISA (ELISA-based colorimetric PARP/Apoptosis Assay kit, Trevigen). The note with it: pIC50=-log10 IC50, IC50 in mol/L; inhibition of PARP catalytic activity. It counts as biochemical. An outline of the steps: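 Quenched after 10 min catalysis by aspiration and four PBS/0.1% Triton X-100 washes. Poly(ADP-ribose) detected with mouse anti-PAR monoclonal antibody, goat anti-mouse IgG-HRP and HRP substrate; colorimetric signal proportional to PARP catalytic activity.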

Assay [2] relates to Jurkat cell line. The assay can be described thus: PARP cellular chemopotentiation assay (MTS, with/without TMZ). It counts as cell-based. The note with it: Chemopotentiation factor: ratio of EC50 values of Jurkat cells co-treated without and with 100 μM TMZ; 96 hours. An outline of the steps:
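Jurkat cells, 10,000/well, pre-cultured 24 h, then treated 96 h with serial compound dilutions (0.5% DMSO) with or without 100 μM TMZ. Viability by MTS conversion (OD490), normalized to DMSO controls; EC50 from curve fits, PF50 = EC50 without TMZ / EC50 with TMZ.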

T1 sequence (P09874 whole entry): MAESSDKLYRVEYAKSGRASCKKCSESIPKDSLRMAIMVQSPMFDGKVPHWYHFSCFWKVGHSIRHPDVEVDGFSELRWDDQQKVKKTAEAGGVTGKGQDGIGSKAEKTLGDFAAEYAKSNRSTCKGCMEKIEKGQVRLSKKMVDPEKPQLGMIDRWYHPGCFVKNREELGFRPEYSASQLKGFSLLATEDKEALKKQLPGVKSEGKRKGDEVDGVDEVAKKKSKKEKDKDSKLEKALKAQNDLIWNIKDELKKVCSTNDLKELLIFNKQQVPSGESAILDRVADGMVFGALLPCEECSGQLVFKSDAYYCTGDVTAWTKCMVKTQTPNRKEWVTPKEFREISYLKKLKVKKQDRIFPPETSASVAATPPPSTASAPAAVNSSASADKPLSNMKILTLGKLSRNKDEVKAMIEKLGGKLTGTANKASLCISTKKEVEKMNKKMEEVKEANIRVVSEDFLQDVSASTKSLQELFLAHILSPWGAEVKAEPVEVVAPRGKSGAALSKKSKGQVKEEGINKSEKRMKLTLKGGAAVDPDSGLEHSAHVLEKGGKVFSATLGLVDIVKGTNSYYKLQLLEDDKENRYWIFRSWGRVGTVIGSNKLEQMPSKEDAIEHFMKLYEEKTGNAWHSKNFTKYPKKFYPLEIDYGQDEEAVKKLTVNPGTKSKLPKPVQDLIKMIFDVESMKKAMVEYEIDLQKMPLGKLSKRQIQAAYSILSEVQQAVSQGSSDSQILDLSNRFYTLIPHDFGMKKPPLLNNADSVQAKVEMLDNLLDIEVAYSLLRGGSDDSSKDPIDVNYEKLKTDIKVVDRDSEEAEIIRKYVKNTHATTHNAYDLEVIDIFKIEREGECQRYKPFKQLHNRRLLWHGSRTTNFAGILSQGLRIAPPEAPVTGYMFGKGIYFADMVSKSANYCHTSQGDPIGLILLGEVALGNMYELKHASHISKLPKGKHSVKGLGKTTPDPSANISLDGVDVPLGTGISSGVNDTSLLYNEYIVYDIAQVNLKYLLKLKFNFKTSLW

By IC50 is commonly meant the point on the concentration scale where inhibition reaches its midpoint. With `CCNC(=O)c1ccc(N2CCN(Cc3cc4c(c(C5CC5)c3)OC(C)C(=O)N4)CC2)cc1` (stereo not drawn) [Compound 346, 4-(4-((8-Cyclopropyl-2-methyl-3-oxo-3,4-dihydro-2H-benzo[b][1,4]oxazin-6-yl)methyl)piperazin-1-yl)-N-ethylbenzamide], in assay [1], the IC50 was 100 nM. Besides, the PF50 in assay [2] is given as 8.6.

As for `CCNC(=O)c1ccc(N2CCN(Cc3cc4c(c(OC)c3)OCC(=O)N4)CC2)c(C)c1` [Compound 374, N-Ethyl-4-(4-((8-methoxy-3-oxo-3,4-dihydro-2H-benzo[b][1,4]oxazin-6-yl)methyl)piperazin-1-yl)-3-methylbenzamide], in assay [1], half-maximal inhibition (IC50) required 31.6 nM. For the same compound, the PF50 in assay [2] is on record as less than 2.0.

Take `CCNC(=O)c1ccc(N2CCN(Cc3ccc4c(c3)NC(=O)[C@@H](C)O4)CC2)cc1` [Compound 250, (R)-N-Ethyl-4-(4-((2-methyl-3-oxo-3,4-dihydro-2H-benzo[b][1,4]oxazin-6-yl)methyl)piperazin-1-yl)benzamide]: the IC50 in assay [1] was not above 31.6 nM. In assay [2], the PF50 is 2.0-9.9.

Regarding `CNC(=O)c1ccc(N2CCN(Cc3cc(C)c4c(c3)NC(=O)C(C)O4)CC2)c(F)c1` (stereo not drawn) [Compound 380, 4-(4-((2,8-Dimethyl-3-oxo-3,4-dihydro-2H-benzo[b][1,4]oxazin-6-yl)methyl)piperazin-1-yl)-3-fluoro-N-methylbenzamide], inhibition in assay [1] was half-maximal at 50.1 nM (IC50). In assay [2], the PF50 stood at 4.0.

In assay [1], `CCNC(=O)c1ccc(N2CCN(Cc3cc(C)c4c(c3)NC(=O)C(C)O4)CC2)c(C)c1` (stereo not drawn) [Compound 385, 4-(4-((2,8-Dimethyl-3-oxo-3,4-dihydro-2H-benzo[b][1,4]oxazin-6-yl)methyl)piperazin-1-yl)-N-ethyl-3-methylbenzamide] gave an IC50 of 50.1 nM. The PF50 in assay [2] is on record as 5.9.

For `CCNC(=O)c1ccc(N2CCN(Cc3cc(O)c4c(c3)NC(=O)C(C)O4)CC2)cc1` (stereo not drawn) [Compound 359, N-Ethyl-4-(4-((8-hydroxy-2-methyl-3-oxo-3,4-dihydro-2H-benzo[b][1,4]oxazin-6-yl)methyl)piperazin-1-yl)benzamide], the IC50 in assay [1] was 15.8 nM. Besides, in assay [2], the PF50 is more than 6.0.

As to `CCOc1cc(CN2CCN(c3ccc(C(=O)NC)cc3C)CC2)cc2c1OC(C)C(=O)N2` (stereo not drawn) [Compound 400, 4-(4-((8-Ethoxy-2-methyl-3-oxo-3,4-dihydro-2H-benzo[b][1,4]oxazin-6-yl)methyl)piperazin-1-yl)-N,3-dimethylbenzamide], half-maximal inhibition in assay [1] (IC50) required 31.6 nM. In addition, the PF50 in assay [2] came to 1211.

On to `CNC(=O)c1ccc(N2CCN(Cc3cc4c(c(OC(F)F)c3)OC(C)C(=O)N4)CC2)c(C)c1` (stereo not drawn) [Compound 406, 4-(4-((8-(Difluoromethoxy)-2-methyl-3-oxo-3,4-dihydro-2H-benzo[b][1,4]oxazin-6-yl)methyl)piperazin-1-yl)-N,3-dimethylbenzamide], for which half-maximal inhibition in assay [1] (IC50) was put at 63.1 nM. Moreover, the PF50 in assay [2] is on record as 13.

In turn, `CCNC(=O)c1ccc(N2CCN(Cc3cc4c(c(OC)c3)OCC(=O)N4)CC2)c(Cl)c1` [Compound 370, 3-Chloro-N-ethyl-4-(4-((8-methoxy-3-oxo-3,4-dihydro-2H-benzo[b][1,4]oxazin-6-yl)methyl)piperazin-1-yl)benzamide] gave a half-maximal inhibitory concentration (IC50) in assay [1] of 79.4 nM. Further, the PF50 in assay [2] came out at 5.0.

As for `CCNC(=O)c1ccc(N2CCN(Cc3cc4c(cc3F)OC(C)C(=O)N4)CC2)cc1` (stereo not drawn) [Compound 336, N-Ethyl-4-(4-((7-fluoro-2-methyl-3-oxo-3,4-dihydro-2H-benzo[b][1,4]oxazin-6-yl)methyl)piperazin-1-yl)benzamide], the IC50 in assay [1] was 100 nM. The PF50 in assay [2] was found to be 2.1.

In turn, `CCNC(=O)c1ccc(N2CCN(Cc3cc(C)c4c(c3)NC(=O)C(C)O4)CC2)c(F)c1` (stereo not drawn) [Compound 381, 4-(4-((2,8-Dimethyl-3-oxo-3,4-dihydro-2H-benzo[b][1,4]oxazin-6-yl)methyl)piperazin-1-yl)-N-ethyl-3-fluorobenzamide] showed an IC50 in assay [1] of 39.8 nM. In addition, the PF50 in assay [2] is listed as more than 2.

Compound `CC1Oc2ccc(Cn3cc4ccccc4n3)cc2NC1=O` (stereo not drawn) [Compound 344, 6-((2H-Indazol-2-yl)methyl)-2-methyl-2H-benzo[b][1,4]oxazin-3(4H)-one] showed an IC50 in assay [1] of more than 200 nM. For the same compound, the PF50 in assay [2] is given as 1.3.

Turning to `Cc1cc2c(cc1CN1CC=C(c3ccc(Cl)cc3)CC1)NC(=O)C(C)O2` (stereo not drawn) [Compound 321, 6-((4-(4-Chlorophenyl)-5,6-dihydropyridin-1(2H)-yl)methyl)-2,7-dimethyl-2H-benzo[b][1,4]oxazin-3(4H)-one], the IC50 in assay [1] was 2 nM. In addition, the PF50 in assay [2] is reported as 1.4.

In turn, `CCOC(=O)c1ccc(N2CCN(Cc3cc(Cl)c4c(c3)NC(=O)C(C)O4)CC2)cc1` (stereo not drawn) [Compound 306, Ethyl 4-(4-((8-chloro-2-methyl-3-oxo-3,4-dihydro-2H-benzo[b][1,4]oxazin-6-yl)methyl)piperazin-1-yl)benzoate] had an IC50 in assay [1] of 79.4 nM. In addition, the PF50 in assay [2] came to 1.3.

For the compound `COc1cc(CN2CCN(c3ccc(C(=O)NC4CC4)cc3Cl)CC2)cc2c1OC(C)C(=O)N2` (stereo not drawn) [Compound 373, 3-Chloro-N-cyclopropyl-4-(4-((8-methoxy-2-methyl-3-oxo-3,4-dihydro-2H-benzo[b][1,4]oxazin-6-yl)methyl)piperazin-1-yl)benzamide], the IC50 in assay [1] was 20 nM. Further, in assay [2], the PF50 is reported as 3.2.

For `CC1Oc2c(Cc3ccccc3)cc(CN3CCN(c4ccc(C(=O)NC5CC5)cc4)CC3)cc2NC1=O` (stereo not drawn) [Compound 354, 4-(4-((8-Benzyl-2-methyl-3-oxo-3,4-dihydro-2H-benzo[b][1,4]oxazin-6-yl)methyl)piperazin-1-yl)-N-cyclopropylbenzamide], the 50% inhibitory concentration (IC50) in assay [1] is more than 200 nM. Further, the PF50 in assay [2] is listed as 1.0.

Consider `CCNC(=O)c1ccc(N2CCN(Cc3cc(Cc4ccccc4)c4c(c3)NC(=O)C(C)O4)CC2)cc1` (stereo not drawn) [Compound 355, 4-(4-((8-Benzyl-2-methyl-3-oxo-3,4-dihydro-2H-benzo[b][1,4]oxazin-6-yl)methyl)piperazin-1-yl)-N-ethylbenzamide], for which the IC50 in assay [1] is more than 200 nM. The PF50 in assay [2] is 1.3.

In the case of `CNC(=O)c1ccc(N2CCN(Cc3cc(C)c4c(c3)NC(=O)C(C)O4)CC2)c(Cl)c1` (stereo not drawn) [Compound 383, 3-Chloro-4-(4-((2,8-dimethyl-3-oxo-3,4-dihydro-2H-benzo[b][1,4]oxazin-6-yl)methyl)piperazin-1-yl)-N-methylbenzamide], the IC50 in assay [1] is 50.1 nM. In addition, the PF50 in assay [2] was 3.2.

On to `CCOc1cc(CN2CCN(c3ccc(C(=O)NC)cc3)CC2)cc2c1OC(C)C(=O)N2` (stereo not drawn) [Compound 398, 4-(4-((8-Ethoxy-2-methyl-3-oxo-3,4-dihydro-2H-benzo[b][1,4]oxazin-6-yl)methyl)piperazin-1-yl)-N-methylbenzamide], for which the IC50 in assay [1] was 79.4 nM. Also, the PF50 in assay [2] is recorded as more than 2.0.

Take `CNC(=O)c1ccc(N2CCN(Cc3cc(Cl)c4c(c3)NC(=O)C(C)O4)CC2)cc1` (stereo not drawn) [Compound 308, 4-(4-((8-Chloro-2-methyl-3-oxo-3,4-dihydro-2H-benzo[b][1,4]oxazin-6-yl)methyl)piperazin-1-yl)-N-methylbenzamide]: in assay [1], the IC50 was 20 nM. Also, in assay [2], the PF50 is 6.3.

For the compound `CC1Oc2cc(F)c(CN3CCN(c4ccc(C#N)cn4)CC3)cc2NC1=O` (stereo not drawn) [Compound 340, 6-(4-((7-Fluoro-2-methyl-3-oxo-3,4-dihydro-2H-benzo[b][1,4]oxazin-6-yl)methyl)piperazin-1-yl)nicotinonitrile], half-maximal inhibition in assay [1] (IC50) was put at 63.1 nM. The PF50 in assay [2] was 0.9.

In assay [1], `CCNC(=O)c1ccc(N2CCN(Cc3cc(Cl)c4c(c3)NC(=O)C(C)O4)CC2)cc1` (stereo not drawn) [Compound 309, 4-(4-((8-Chloro-2-methyl-3-oxo-3,4-dihydro-2H-benzo[b][1,4]oxazin-6-yl)methyl)piperazin-1-yl)-N-ethylbenzamide] gave an IC50 of 5.01 nM. Also, the PF50 in assay [2] worked out at 5.2.

Take `Cc1cc(CN2CCN(c3ccc(C(=O)NC4CC4)cc3F)CC2)cc2c1OC(C)C(=O)N2` (stereo not drawn) [Compound 387, N-Cyclopropyl-4-(4-((2,8-dimethyl-3-oxo-3,4-dihydro-2H-benzo[b][1,4]oxazin-6-yl)methyl)piperazin-1-yl)-3-fluorobenzamide]: in assay [1], the IC50 is 50.1 nM. Besides, the PF50 in assay [2] is listed as more than 5.0.

Regarding `Cc1cc(CN2CCN(c3ccc(C(=O)NC4CC4)cc3Cl)CC2)cc2c1OC(C)C(=O)N2` (stereo not drawn) [Compound 388, 3-Chloro-N-cyclopropyl-4-(4-((2,8-dimethyl-3-oxo-3,4-dihydro-2H-benzo[b][1,4]oxazin-6-yl)methyl)piperazin-1-yl)benzamide], the IC50 in assay [1] was 79.4 nM. The PF50 in assay [2] came to 6558.

For the compound `CC1Oc2ccc(CN3CCN(c4ccc(C(=O)NCC5CC5)cc4)CC3)cc2NC1=O` (stereo not drawn) [Compound 226, N-(Cyclopropylmethyl)-4-(4-((2-methyl-3-oxo-3,4-dihydro-2H-benzo[b][1,4]oxazin-6-yl)methyl)piperazin-1-yl)benzamide], the IC50 in assay [1] is 39.8 to 100 nM. The PF50 result in assay [2] is listed as “≦0.9”.

`CCNC(=O)c1ccc(N2CCN(Cc3ccc4c(c3)NC(=O)CO4)CC2)c(Cl)c1` [Compound 367, 3-Chloro-N-ethyl-4-(4-((3-oxo-3,4-dihydro-2H-benzo[b][1,4]oxazin-6-yl)methyl)piperazin-1-yl)benzamide] had an IC50 in assay [1] of more than 200 nM. In assay [2], the PF50 was 2.5.

The compound `CCNC(=O)c1ccc(N2CCN(Cc3cc4c(c(OCC)c3)OC(C)C(=O)N4)CC2)c(C)c1` (stereo not drawn) [Compound 401, 4-(4-((8-Ethoxy-2-methyl-3-oxo-3,4-dihydro-2H-benzo[b][1,4]oxazin-6-yl)methyl)piperazin-1-yl)-N-ethyl-3-methylbenzamide] had an IC50 in assay [1] of 50.1 nM. Further, the PF50 in assay [2] is listed as more than 5000.

For the origin of these results see patent US8669249B2, “Poly (ADP-ribose) polymerase (PARP) inhibitors” (Takeda Pharmaceutical Company Limited, priority 2009, dated 2014).
